# From PMC7726319, “Discovery of 5,5′-Methylenedi-2,3-Cresotic Acid as a Potent Inhibitor of the Chemotactic Activity of the HMGB1·CXCL12 Heterocomplex Using Virtual Screening and NMR Validation” (Frontiers in Chemistry, 2020)
# pKd: −log10 of the molar value.
# Target: T1, HMGB1 (Mus musculus, UniProt P63158)
# T1 construct: 6His-tagged form for MST
# T1 sequence (P63158 2-215): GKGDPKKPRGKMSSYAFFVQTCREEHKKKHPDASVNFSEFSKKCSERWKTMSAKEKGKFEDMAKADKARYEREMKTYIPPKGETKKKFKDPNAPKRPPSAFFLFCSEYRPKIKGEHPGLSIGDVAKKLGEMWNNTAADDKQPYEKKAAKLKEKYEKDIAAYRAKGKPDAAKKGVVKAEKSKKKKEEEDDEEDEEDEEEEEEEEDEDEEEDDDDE
# Test: 1H-15N HSQC NMR titration (CSP fit)
# Format: binding
# Details: read-out: apparent Kd
smiles,measurement,value
"O=C(/C=C/c1ccc(O)c(O)c1)O[C@H](Cc1ccc(O)c(O)c1)C(=O)O [compound 6, rosmarinic acid]",pKd,< 2.00
